Source: publication PMC6757289, “Design and Characterization of SGK3-PROTAC1, an Isoform Specific SGK3 Kinase PROTAC Degrader” (ACS Chemical Biology, 2019)
Like-named read-outs stand apart in the source and are kept apart here.

Key:
Experiment in all cases: kinase profiling panel
Type in all cases: biochemical
Conditions in all cases: read-out: % Activity Remaining
MAP4K3 = molecular target: T1, MAP4K3 (Homo sapiens, UniProt Q8IVH8)
T1 sequence (Q8IVH8 1-894): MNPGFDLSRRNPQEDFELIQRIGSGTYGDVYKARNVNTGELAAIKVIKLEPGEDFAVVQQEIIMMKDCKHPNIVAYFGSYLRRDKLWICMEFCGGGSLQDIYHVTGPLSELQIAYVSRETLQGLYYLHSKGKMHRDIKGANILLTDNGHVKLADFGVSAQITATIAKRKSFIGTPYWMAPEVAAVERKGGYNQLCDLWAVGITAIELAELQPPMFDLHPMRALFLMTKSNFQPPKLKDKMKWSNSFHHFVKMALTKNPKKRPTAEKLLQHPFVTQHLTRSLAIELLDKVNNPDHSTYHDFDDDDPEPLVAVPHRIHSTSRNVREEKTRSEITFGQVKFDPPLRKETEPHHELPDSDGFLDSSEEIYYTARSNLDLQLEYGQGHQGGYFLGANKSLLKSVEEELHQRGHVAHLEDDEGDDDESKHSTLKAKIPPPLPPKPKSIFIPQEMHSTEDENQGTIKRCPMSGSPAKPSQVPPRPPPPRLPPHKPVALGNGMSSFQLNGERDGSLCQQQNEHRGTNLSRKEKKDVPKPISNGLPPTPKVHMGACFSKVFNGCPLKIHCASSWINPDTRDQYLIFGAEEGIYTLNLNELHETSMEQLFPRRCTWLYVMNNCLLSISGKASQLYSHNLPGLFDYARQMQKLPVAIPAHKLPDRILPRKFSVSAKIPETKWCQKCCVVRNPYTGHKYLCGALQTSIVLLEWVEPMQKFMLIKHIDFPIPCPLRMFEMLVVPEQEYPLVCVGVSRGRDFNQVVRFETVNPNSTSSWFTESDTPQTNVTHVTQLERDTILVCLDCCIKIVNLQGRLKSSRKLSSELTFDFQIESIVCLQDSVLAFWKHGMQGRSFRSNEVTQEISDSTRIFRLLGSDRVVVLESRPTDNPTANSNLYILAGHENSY
From the text: (§1) Protein kinase profiling against a Dundee panel of 140 protein kinases was undertaken at the International Centre for Protein Kinase Profiling. The result for each kinase was presented as a mean kinase activity of the reaction taken in triplicate relative to a control sample treated with DMSO. Assay conditions and abbreviations are available at http://www.kinase-screen.mrc.ac.uk.

ULK1 = molecular target: T2, ULK1 (Homo sapiens, UniProt O75385)
T2 sequence (O75385 1-1050): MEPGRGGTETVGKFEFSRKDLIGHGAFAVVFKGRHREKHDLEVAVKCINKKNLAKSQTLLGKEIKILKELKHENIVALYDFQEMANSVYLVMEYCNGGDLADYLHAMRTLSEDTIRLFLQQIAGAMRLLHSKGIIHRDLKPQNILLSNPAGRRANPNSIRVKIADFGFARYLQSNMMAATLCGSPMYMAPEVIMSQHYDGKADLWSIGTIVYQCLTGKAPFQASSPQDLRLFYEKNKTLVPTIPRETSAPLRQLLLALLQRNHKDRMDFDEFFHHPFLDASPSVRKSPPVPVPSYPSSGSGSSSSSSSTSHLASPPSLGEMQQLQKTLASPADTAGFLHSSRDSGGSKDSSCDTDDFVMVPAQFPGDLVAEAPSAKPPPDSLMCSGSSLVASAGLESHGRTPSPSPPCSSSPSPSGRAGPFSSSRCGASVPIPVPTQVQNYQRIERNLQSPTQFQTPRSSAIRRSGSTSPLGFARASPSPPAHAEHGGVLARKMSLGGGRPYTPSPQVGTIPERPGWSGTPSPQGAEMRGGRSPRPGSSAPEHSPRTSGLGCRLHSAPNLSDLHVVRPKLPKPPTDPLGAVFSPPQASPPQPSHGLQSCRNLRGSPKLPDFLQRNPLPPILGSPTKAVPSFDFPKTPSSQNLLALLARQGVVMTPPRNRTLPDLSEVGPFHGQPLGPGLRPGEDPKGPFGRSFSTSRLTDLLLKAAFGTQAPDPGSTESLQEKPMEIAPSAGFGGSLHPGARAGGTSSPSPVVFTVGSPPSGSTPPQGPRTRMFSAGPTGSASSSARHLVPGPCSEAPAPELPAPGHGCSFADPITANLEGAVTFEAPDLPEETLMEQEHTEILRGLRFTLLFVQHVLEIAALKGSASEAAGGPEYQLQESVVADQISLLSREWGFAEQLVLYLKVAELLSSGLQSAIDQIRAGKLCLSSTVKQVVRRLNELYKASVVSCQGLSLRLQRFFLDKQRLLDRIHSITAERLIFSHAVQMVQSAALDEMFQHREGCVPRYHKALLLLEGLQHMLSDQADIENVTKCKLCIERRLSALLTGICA
From the text: as §1

ULK2 = molecular target: T3, ULK2 (Homo sapiens, UniProt Q8IYT8)
T3 sequence (Q8IYT8 1-1036): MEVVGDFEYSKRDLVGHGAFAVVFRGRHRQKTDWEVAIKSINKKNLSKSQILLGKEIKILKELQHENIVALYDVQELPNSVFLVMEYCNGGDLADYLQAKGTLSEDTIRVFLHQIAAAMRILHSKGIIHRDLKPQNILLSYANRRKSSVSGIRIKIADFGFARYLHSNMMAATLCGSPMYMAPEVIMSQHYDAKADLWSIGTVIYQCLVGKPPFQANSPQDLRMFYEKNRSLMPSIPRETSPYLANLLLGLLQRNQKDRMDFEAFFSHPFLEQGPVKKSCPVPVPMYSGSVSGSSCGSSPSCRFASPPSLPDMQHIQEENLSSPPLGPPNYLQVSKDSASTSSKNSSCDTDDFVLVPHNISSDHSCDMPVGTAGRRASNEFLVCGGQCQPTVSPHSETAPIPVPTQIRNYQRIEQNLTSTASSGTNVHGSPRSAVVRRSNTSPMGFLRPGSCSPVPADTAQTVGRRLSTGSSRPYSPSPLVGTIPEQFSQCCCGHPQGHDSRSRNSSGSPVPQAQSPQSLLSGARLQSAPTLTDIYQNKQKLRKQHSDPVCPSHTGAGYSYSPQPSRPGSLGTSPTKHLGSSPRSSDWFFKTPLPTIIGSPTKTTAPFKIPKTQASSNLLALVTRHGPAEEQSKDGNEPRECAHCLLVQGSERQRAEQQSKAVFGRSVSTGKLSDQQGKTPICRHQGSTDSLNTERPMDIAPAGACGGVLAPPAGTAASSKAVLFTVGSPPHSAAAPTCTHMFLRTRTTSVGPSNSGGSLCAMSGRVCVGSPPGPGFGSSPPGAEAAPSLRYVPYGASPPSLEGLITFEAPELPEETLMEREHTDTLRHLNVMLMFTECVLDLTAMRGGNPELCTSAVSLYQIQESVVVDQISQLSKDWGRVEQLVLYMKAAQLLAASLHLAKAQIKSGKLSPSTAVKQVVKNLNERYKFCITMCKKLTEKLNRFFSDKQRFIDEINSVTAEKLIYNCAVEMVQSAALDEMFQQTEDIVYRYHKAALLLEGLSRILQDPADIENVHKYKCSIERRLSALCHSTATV
From the text: as §1

Structure (SMILES)	remaining activity at 1 µM (MAP4K3)	remaining activity at 1 µM (ULK1)	remaining activity at 1 µM (ULK2)	remaining activity at 1 µM (MAP4K3; 1 µM)	remaining activity at 1 µM (ULK1; 1 µM)	remaining activity at 1 µM (ULK2; 1 µM)
COc1ccc(Cl)c(S(=O)(=O)Nc2ccc(-c3nc(OC[C@H]4CNCCO4)c4c(C)n[nH]c4n3)cc2)c1 [290-R, reference compound]	2%	78%	46%	–	–	–
Cc1ccc(F)c(S(=O)(=O)Nc2ccc(-c3nc(OC[C@H]4CNCCO4)c4cn[nH]c4n3)cc2)c1 [308-R, reference compound]	8%	103%	59%	–	–	–
Cc1ccc(F)c(S(=O)(=O)Nc2ccc(-c3nc(OC[C@H]4CN(CCCCCCOCCOCCOCC(=O)N[C@H](C(=O)N5C[C@H](O)C[C@H]5C(=O)NCc5ccc(-c6scnc6C)cc5)C(C)(C)C)CCO4)c4cn[nH]c4n3)cc2)c1 [SGK3-PROTAC1]	–	–	–	99%	116%	103%
Cc1ccc(F)c(S(=O)(=O)Nc2ccc(-c3nc(OC[C@H]4CN(CCCCCCOCCOCCOCC(=O)N[C@H](C(=O)N5C[C@@H](O)C[C@H]5C(=O)NCc5ccc(-c6scnc6C)cc5)C(C)(C)C)CCO4)c4cn[nH]c4n3)cc2)c1 [cisSGK3-PROTAC1]	–	–	–	95%	112%	117%
